What was measured:
[1] = Two-phase decay model of heart TAC (blood pharmacokinetics); format: in vivo, male nude mice; details: mice, tail vein
Source text: The PET images were reconstructed using the Maximum Likelihood Expectation Maximization method with 12 iterations. The CT images were reconstructed using the Filtered Back Projection method. Scatter, randoms, decay, and attenuation corrections were applied through the Albira software. Volumes-of-interest (VOIs) were drawn for the major organs on the decay-corrected PET images using PMOD, and injected doses were used to calculate percent of injected dose per cubic centimeter of tissue (%ID/cc). Errors in the averaged %ID/cc were reported as standard error of the mean (SEM). A non-linear regression analysis of the dynamic PET data for both C60-[^64Cu]Cu(NOTA) and [^64Cu]Cu(NOTA) was performed and fitted to a two-phase decay model to determine the blood half-life of each compound.
We also performed a non-linear regression analysis of the heart TAC data of both compounds using a two-phase decay model, which produced a p value of < 0.0001 by an extra sum-of-squares F test. The two-phase decay model consists of a distribution phase and an elimination phase. The fast distribution phase describes the rapid circulation of the material from the plasma to highly-perfused tissues, and the slow elimination phase describes the clearance of the material from the plasma and tissues through excretion. From this analysis, a blood half-life (t1/2) and rate constants (α, β) for each phase were determined along with the clearance rate (CL) and the area under the curve (AUC), which represents a normalized volume of distribution (Table 1).

[2] = PET/CT biodistribution in mice; format: in vivo, male nude mice
Method: PET and CT scans were performed using a small animal Albira PET/SPECT/CT scanner (Bruker Corporation, Billerica, MA, USA). PET images were analyzed using PMOD Version 3.505 (PMOD Technologies Ltd., Zürich, Switzerland). PET/CT maximum intensity projections were constructed using Inveon Research Workplace (Siemens Medical Solutions USA, Inc., Malvern, PA, USA). Statistical analysis was performed on GraphPad Prism 8 (GraphPad Software, San Diego, CA, USA).
PET Image Acquisition: All mice were manipulated in accordance to the MD Anderson Cancer Center’s IACUC guidelines. Mice were anesthetized with 2% isoflurane using oxygen as a carrier. For both C60-[^64Cu]Cu(NOTA) and [^64Cu]Cu(NOTA), 6 male nude mice were injected on the bed with ~200 μCi of activity in 150 μL of saline through a tail vein catheter. At the start of injection, a 20-min dynamic PET scan was acquired using the Albira PET/SPECT/CT scanner with a 15 cm field of view (FOV). The actual injected dose was calculated by measuring the pre- and post-injection activity in the syringe using a CRC-15R dose calibrator (Capintec, Inc., Florham Park, NJ, USA). The data were binned into 20-s time frames for the first 5 min, 60-s frames for the next 5 min, and 5-min frames for the next 10 min. Static PET images were then recorded at 3 h and 24 h post-injection (p.i.) for 10 min. A static PET image at 48 h p.i. was recorded for 20 min for C60-[^64Cu]Cu(NOTA) only. Following all PET scans, two 3 min CT scans were performed to cover the whole mouse body with a total FOV of 12.6 cm (400 μA, 45 kV, 250 projections).
The PET images were reconstructed using the Maximum Likelihood Expectation Maximization method with 12 iterations. The CT images were reconstructed using the Filtered Back Projection method. Scatter, randoms, decay, and attenuation corrections were applied through the Albira software. Volumes-of-interest (VOIs) were drawn for the major organs on the decay-corrected PET images using PMOD, and injected doses were used to calculate percent of injected dose per cubic centimeter of tissue (%ID/cc). […]

For `O=C([O-])CN1CCN(CC(=O)[O-])CCN(CC(=O)O)CC1.[64Cu+2]` [[^64Cu]Cu(NOTA)], the “Area under Curve (AUC)” value [1] was 3.173 × 10^2 %ID·min/cc, the “Distribution Half-Life” value [1] was 0.4975 min and the “Distribution Rate Constant (α)” value [1] was 1.393 min⁻¹. The “Elimination Half-Life” value [1] was 8.153 min, the “Elimination Rate Constant (β)” value [1] was 0.08501 min⁻¹ and the “period in which most of the material was cleared by renal excretion” value ([2]; PET) was “between 20 min and 3 h p.i”. For the same compound, the “uptake / detected signal at 48 h p.i.” value ([2]; PET static scan, 48 h p.i., any organ) was “negligible” and the “uptake in the kidneys compared to other major organs” value ([2]; PET, 20 min p.i.) was “significant uptake”.
